The test system of assay [1] is human pancreatic carcinoma PANC-1 cells. As to the kind of experiment: Cytotoxicity against PANC-1 cells under glucose-deficient or general culture conditions (WST-8). It is filed as cell-based. The settings on record: for IC50: Homo sapiens, 12 h treatment, WST-8. The procedure:
PANC-1 cells were maintained in DMEM supplemented with heat-inactivated 10% FBS and kanamycin (50 µg/mL) and grown at 37 °C in a 5% CO2 atmosphere. […] The general culture medium—that is, basal medium containing 10% FBS and […] glucose (final concentration, 25 mM)—was used for comparison. The assay was performed as previously described. Briefly, PANC-1 cells (1 × 10^4 cells/100 µL in 96-well plastic plates) were preincubated in DMEM containing 10% FBS for 24 h. The medium was then changed with either the general glucose medium or glucose-deficient medium to induce adaption to nutrient starvation. After 12-h incubation, serially diluted samples were added to the media. Then, the cells were incubated for an additional 12 h at 37 °C in a 5% CO2 atmosphere. Cell proliferation was identified using WST-8. The IC50 values were determined by linear interpolation of the growth inhibition curve. We assessed the selectivity of the antiproliferative activity (S.I.) on the basis of the difference in the IC50 values for the general culture and glucose-deficient media.

Assay [2] deals with oxygen consumption by PANC-1 cells. The arrangement: method as in PMID 32002808, PMID 26204821. The conditions noted are these: cited from earlier work.
For assay [3], the target named is Mitochondrial complex III (coenzyme Q cytochrome c oxidoreductase) (Bos taurus, UniProt P00125+P00157+P13272). As to the kind of experiment: MitoCheck Complex Activity Assay, complex III. The class given is biochemical, bovine. As to the method: (§1) The inhibitory activity of compound 1 on the mitochondrial electron transport chain (complexes I–V) was analyzed using MitoCheck Complex Activity Assay kits (Cayman Chemical) following the manufacturer’s instructions. The kits measured the enzymatic activity of each complex derived from bovine heart mitochondria in the following systems: Mitochondrial complex I (NADH oxidase/coenzyme Q reductase) activity was determined by measuring the decrease in NADH oxidation, which is reflected by a decrease in absorbance at 340 nm. Mitochondrial complex II (succinate dehydrogenase/coenzyme Q reductase) activity was assessed on the basis of the reduction rate of 2, 6-dichlorophenolindophenol (protonated by reduced coenzyme Q), which is reflected by a decrease in absorbance at 600 nm. Mitochondrial complex III (coenzyme Q cytochrome c oxidoreductase) activity was determined on the basis of the cytochrome c reduction rate, which is reflected by an increase in absorbance at 550 nm. Mitochondrial complex IV (cytochrome c oxidase) activity was determined by measuring the cytochrome c oxidation rate, which is reflected by a decrease in absorbance at 550 nm. Mitochondrial complex V (F1F0 ATP synthase) activity was determined by the NADH oxidation rate, which can be monitored at 340 nm.

In assay [4] the target is T1, Mitochondrial complex II (succinate dehydrogenase/coenzyme Q reductase) (Bos taurus, UniProt P31039+P35720+Q3T189+Q95123).
T1 construct: enzymatic activity of each complex derived from bovine heart mitochondria; purchased Cayman Chemical; host or cells: bovine heart mitochondria (tissue-derived, supplied in kit)
The assay is described as follows: MitoCheck Complex Activity Assay, complex II. It is filed as biochemical, bovine. The conditions noted are these: bovine heart mitochondria. As to the method:
as §1

This is an account of results in paper PMC7694948, “Mitochondrial Targeting in an Anti-Austerity Approach Involving Bioactive Metabolites Isolated from the Marine-Derived Fungus Aspergillus sp” (Marine Drugs, 2020).

One may read the IC50 as the midpoint of a concentration-inhibition curve.

T1 sequence (P31039 44-665): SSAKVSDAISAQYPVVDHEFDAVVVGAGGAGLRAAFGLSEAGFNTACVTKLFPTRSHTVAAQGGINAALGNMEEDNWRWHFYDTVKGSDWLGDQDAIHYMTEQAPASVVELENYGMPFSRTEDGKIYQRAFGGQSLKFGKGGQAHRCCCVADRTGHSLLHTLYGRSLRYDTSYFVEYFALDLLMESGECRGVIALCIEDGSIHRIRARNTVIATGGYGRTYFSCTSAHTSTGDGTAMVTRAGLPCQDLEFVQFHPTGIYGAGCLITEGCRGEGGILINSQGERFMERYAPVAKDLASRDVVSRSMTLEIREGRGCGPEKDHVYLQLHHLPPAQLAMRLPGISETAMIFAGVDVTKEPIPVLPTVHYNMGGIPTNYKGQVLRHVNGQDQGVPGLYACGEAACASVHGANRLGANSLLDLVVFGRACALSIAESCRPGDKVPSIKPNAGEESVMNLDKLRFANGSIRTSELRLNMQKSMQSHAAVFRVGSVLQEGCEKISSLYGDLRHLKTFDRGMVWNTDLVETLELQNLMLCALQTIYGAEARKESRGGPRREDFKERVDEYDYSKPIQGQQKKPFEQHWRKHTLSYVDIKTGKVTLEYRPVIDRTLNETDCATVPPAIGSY
T1 sequence (Q3T189 29-280): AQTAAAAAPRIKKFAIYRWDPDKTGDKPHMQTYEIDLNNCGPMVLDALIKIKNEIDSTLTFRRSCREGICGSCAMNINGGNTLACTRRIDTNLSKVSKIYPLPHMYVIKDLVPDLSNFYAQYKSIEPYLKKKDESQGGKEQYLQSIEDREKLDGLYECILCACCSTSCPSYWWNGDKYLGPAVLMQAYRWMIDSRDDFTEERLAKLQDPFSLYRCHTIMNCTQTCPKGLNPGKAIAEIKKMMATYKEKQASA
T1 sequence (P35720 30-169): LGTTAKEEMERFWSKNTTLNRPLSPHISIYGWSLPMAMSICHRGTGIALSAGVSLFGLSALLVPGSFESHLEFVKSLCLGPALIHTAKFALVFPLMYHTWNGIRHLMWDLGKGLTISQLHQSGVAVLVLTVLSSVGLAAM
T1 sequence (Q95123 56-158): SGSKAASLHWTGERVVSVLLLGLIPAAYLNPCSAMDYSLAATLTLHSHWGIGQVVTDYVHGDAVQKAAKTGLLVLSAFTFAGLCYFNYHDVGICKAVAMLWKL
Mitochondrial complex III (coenzyme Q cytochrome c oxidoreductase), sequence (P00125 85-325): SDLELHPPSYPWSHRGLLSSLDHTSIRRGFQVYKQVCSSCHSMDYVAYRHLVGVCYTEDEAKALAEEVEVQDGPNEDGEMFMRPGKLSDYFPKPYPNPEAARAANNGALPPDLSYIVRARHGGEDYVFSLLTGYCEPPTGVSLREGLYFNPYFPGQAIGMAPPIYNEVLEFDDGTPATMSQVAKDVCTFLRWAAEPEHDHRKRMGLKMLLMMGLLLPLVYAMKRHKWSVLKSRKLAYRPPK
Mitochondrial complex III (coenzyme Q cytochrome c oxidoreductase), sequence (P00157 whole entry): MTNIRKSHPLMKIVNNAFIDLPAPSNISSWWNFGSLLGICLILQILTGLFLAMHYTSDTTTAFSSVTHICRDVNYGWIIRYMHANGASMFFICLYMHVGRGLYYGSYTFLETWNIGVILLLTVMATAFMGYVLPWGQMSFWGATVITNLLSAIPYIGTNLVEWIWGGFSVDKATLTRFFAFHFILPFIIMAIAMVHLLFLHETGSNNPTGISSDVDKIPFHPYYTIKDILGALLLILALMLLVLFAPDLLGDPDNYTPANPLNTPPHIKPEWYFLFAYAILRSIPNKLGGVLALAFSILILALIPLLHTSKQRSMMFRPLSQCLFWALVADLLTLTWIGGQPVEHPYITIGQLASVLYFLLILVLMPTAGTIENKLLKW
Mitochondrial complex III (coenzyme Q cytochrome c oxidoreductase), sequence (P13272 whole entry): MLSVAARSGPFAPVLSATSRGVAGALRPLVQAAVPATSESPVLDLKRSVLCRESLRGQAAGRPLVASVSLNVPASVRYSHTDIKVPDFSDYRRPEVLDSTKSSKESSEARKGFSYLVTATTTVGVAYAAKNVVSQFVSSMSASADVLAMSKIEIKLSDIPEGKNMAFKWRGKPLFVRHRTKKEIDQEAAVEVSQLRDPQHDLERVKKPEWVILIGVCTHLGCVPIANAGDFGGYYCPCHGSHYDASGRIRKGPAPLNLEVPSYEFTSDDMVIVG

Take `CCCCCC[C@H]1C(=O)O[C@H](C)[C@H](NC(=O)c2cccc(NC=O)c2O)C(=O)O[C@@H](C)[C@@H]1OC(=O)CC(C)C` [Antimycin A, reference compound]: the IC50 in assay [1] (PANC-1, general glucose medium) was found to be 288 ± 0.5 µM; in assay [1] (PANC-1, glucose-deficient medium, 12 h adaptation), 0.0003 µM; in assay [3] it was 0.03 ± 0.01 µM. For the same compound, the “S.I. (selectivity index)” value in assay [1] (difference in IC50 values for general culture and glucose-deficient media) was 960,000. Moreover, the “effect on oxygen consumption” value in assay [2] is “reduces oxygen consumption”.

Consider `N#CC(C#N)=NNc1cccc(Cl)c1` [CCCP, carbonyl cyanide m-chlorophenylhydrazone], for which the “effect on oxygen consumption” value in assay [2] is recorded as “increase the oxygen consumption”.

For `COC(=O)[C@@]12Oc3ccc(-c4ccc5c(c4O)C(O)C4=C(O)C[C@H](C)[C@@H](O)[C@]4(C(=O)OC)O5)c(O)c3C(=O)C1=C(O)C[C@H](C)[C@H]2O` (some centres unmarked) [secalonic acid D], in assay [2], the “effect on oxygen consumption” value is “increase the oxygen consumption”.

For the compound `O=C(CC(=O)C(F)(F)F)c1cccs1` [thenoyltrifluoroacetone, reference compound], in assay [4], the 50% inhibitory concentration (IC50) was determined as 68 ± 0.01 µM.
